Measurements from patent publication US10220069B2, “Compositions and methods for treating diabetes” (THE JOHNS HOPKINS UNIVERSITY, priority 2014, dated 2019).
Each block holds one substance with its values, some of them ahead of it. Where no end group is shown, it is not given here.

How the values were obtained:
Kiss1 [1] = assay: Kiss1 expression in primary mouse hepatocytes; type: cell-based; conditions: for Kiss1 expression / Pck1 expression: primary mouse hepatocytes, glucagon 200 pg/ml, insulin 2000 pg/ml; for Kiss1 expression: 2 hr
Method: Cell Culture Studies. Mouse primary hepatocytes were isolated and cultured as described (He et al., 2009). H2.35 hepatoma cell line was cultured and transfected as described (He et al., 2009). 1 kb of the 5' untranslated region of the mouse Kiss1 gene were cloned by PCR into pGL4. The CRE half sites (TGCAT) within the promoter region were mutated by site directed mutagenesis to (TATGT). Luciferase activity was measured in cell lysates using a luminometer (Berthold) after treatment each for 2 hours with forskolin/IBMX (100 μM each) or glucagon (200 pg/ml) or/and insulin (2000 pg/ml). Dominant-negative A-CREB (Ahn et al., 1998) and WT CREB were from Addgene. Constitutively active CREB […] (Du et al., 2000) was generated by site directed mutagenesis of WT CREB. Glucagon Stimulates Hepatic Kiss1 Expression Via Gcgr and cAMP-PKA-CREB Signaling. We next examined whether glucagon directly stimulates hepatic kisspeptin1 production. Glucagon treatment (200 pg/ml) of primary mouse hepatocytes stimulated within 2 hr Kiss1 expression and protein (FIGS. 2A-2C).

Kiss1 [2] = assay: ip insulin in L-Δprkar1a mice: hepatic Kiss1; type: in vivo, mouse; conditions: 1 IU/kg ip, within 60 min
Method: Consistent with these observations of insulin counterregulation of PKA-mediated Kiss1 stimulation, in vivo ip insulin (1 IU/kg) administration in L-Δprkar1a mice to supplement relatively deficient endogenous serum insulin concentrations and to achieve blood glucose reduction, decreased hepatic Kiss1 mRNA and protein levels within 60 min (FIGS. 8I-8K).

[3] = intravenous bolus, circulating kisspeptin not measured; cited from earlier work
GPR54 [4] = target: T1, GPR54 (Mus musculus, UniProt Q91V45); assay: GSIS from WT islets exposed to K10 or diabetic mouse serum with K234; type: cell-based
T1 construct: Mouse brain, mouse islets, insulinoma cells, and human islets express Kiss1R; from tissue; host or cells: isolated mouse pancreatic islets (WT / Kiss1Rfl/fl, C57Bl/6 background)
Text: (§1) Accordingly, based on the above outlined considerations on β-cell dysfunction and hyperglucagonemia, we reasoned that glucagon receptor-mediated signaling in the liver is required to initiate β-cell dysfunction and to impair glucose-stimulated insulin secretion. We therefore inducibly disinhibited cAMP-PKA signaling in vivo in adult mouse liver by ablating hepatic protein kinase A regulatory subunit 1A (prkar1a) by adenovirus mediated hepatic CRE recombinase transduction in floxed prkar1a mice (L-Δprkar1a mice) 14 (FIG. 22A). Upregulation of hepatic cAMP-PKA signaling within 3 days stimulated hepatic gluconeogenesis causing increase in fasting glucose levels and insufficient insulin secretion to correct glycemia. Conversely, identical baseline fasting glycemia achieved in mice by continuous exogenous glucose infusion for 3 days 15 (D-glucose mice) was associated with increased insulin secretion and relatively mild impairment of glucose tolerance despite continued exogenous glucose infusions (FIG. 22B). Differential hepatic gene expression analysis between these two mouse models identified the gene encoding the secreted neuropeptide kisspeptin-1 (Kiss1) to be markedly elevated (8× on mRNA array, 15× on qRT-PCR) in L-Δprkar1a but not in D-glucose mice (FIG. 22C). […] The kisspeptin receptor Gpr54 expression was detected at significant levels in pancreatic islets (FIG. 26). […]

GPR54 [5] = target: T1, GPR54; assay: Glucose tolerance in db/db diabetic mice treated with K234; type: in vivo
Text: as §1

mouse Kiss1 promoter = assay: Kiss1 promoter luciferase reporter in H2.35 hepatoma cells; type: cell-based; conditions: 1 kb mouse Kiss1 promoter
Method: Cell Culture Studies. Mouse primary hepatocytes were isolated and cultured as described (He et al., 2009). H2.35 hepatoma cell line was cultured and transfected as described (He et al., 2009). 1 kb of the 5' untranslated region of the mouse Kiss1 gene were cloned by PCR into pGL4. The CRE half sites ([…]) within the promoter region were mutated by site directed mutagenesis to (TATGT). Luciferase activity was measured in cell lysates using a luminometer (Berthold) after treatment each for 2 hours with forskolin/IBMX (100 μM each) or glucagon (200 pg/ml) or/and insulin (2000 pg/ml). Dominant-negative A-CREB (Ahn et al., 1998) and WT CREB were from Addgene. Constitutively active CREB […] (Du et al., 2000) was generated by site directed mutagenesis of WT CREB. […] The mouse Kiss1 promoter contains two putative functional cAMP response element (CRE) half-sites (TGACT) (Zhang et al., 2005) located at _127 and _758 bp upstream of the Kiss1 transcription start site. Mutation of either of the CRE half-sites decreased the transcriptional responses to glucagon or to fsk/IBMX, and combined mutation of both CRE half-sites further decreased the responses (FIG. 9A).

Gcgr [6] = target: T2, Gcgr (Mus musculus, UniProt Q61606); assay: Intraperitoneal glucagon: hepatic kisspeptin1 production; type: in vivo
T2 construct: endogenous in cells; host or cells: live mice (WT, Gcgrfl/fl, HFD-fed C57Bl/6, Lepr db/db); hepatic receptor
Method: (§2) Intraperitoneal glucose tolerance (ipGTT) and insulin tolerance (ipITT) tests were performed according to standard protocols (Song et al., 2013; Song et al., 2011). After 9 am-3 pm fasting, animals were administered 20% D-glucose (via ip injection), insulin 0.5 U/kg i.p. […] The glucagon receptor antagonist GAI (N-(3-Cyano-6-(1,1-dimethylpropyl)-4,5,6,7-tetrahydro-1-benzothien-2-yl)-2-ethylbutanamide (Qureshi et al., 2004) and its non-active analogue were administered (50 mg/kg i.p. in DMSO) in HFD fed and Lepr^db/db mice 60 min before i. GTT. Intraperitoneal pyruvate converstion (1 g/kg i.p.) test (ipPCT) in ΔL-Prkar1a mice was performed in the fed state (9 am) to avoid any confounding effects of fasting-induced elevated endogenous glucagon levels. Tail-vein blood was collected at the indicated times in figures for glucose and insulin measurements. Serum insulin was measured using mouse magnetic bead panel (Millipore, Luminex). Plasma for glucagon measurements was drawn from mice in the fed state at 9 am, unless otherwise noted for fasting studies. Plasma glucagon (Alpco) and kisspeptin1 (USCN Life Sciences Inc. E92559Ra) were measured by ELISA according to manufacturer's instructions including dilution of samples.
(§3) Kiss1 transcript was also detectable by qRT-PCR at low levels in spleen, kidney, skeletal muscle, and epididymal fat tissue.

Gcgr [7] = assay: as above; type: in vivo, mouse; conditions: mice lacking liver Gcgr, ip glucagon
Method: as §2, §3

T1 sequence (Q91V45 whole entry): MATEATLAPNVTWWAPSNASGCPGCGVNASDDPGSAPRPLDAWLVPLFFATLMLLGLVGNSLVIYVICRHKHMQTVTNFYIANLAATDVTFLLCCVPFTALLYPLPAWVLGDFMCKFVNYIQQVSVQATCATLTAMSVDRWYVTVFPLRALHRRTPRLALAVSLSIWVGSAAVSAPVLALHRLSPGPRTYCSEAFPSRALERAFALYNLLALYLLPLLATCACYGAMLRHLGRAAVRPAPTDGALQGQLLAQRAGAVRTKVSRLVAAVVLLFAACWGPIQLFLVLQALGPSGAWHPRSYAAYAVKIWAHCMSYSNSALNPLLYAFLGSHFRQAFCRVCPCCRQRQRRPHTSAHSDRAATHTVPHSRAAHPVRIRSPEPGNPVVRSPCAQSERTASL
T2 sequence (Q61606 27-485): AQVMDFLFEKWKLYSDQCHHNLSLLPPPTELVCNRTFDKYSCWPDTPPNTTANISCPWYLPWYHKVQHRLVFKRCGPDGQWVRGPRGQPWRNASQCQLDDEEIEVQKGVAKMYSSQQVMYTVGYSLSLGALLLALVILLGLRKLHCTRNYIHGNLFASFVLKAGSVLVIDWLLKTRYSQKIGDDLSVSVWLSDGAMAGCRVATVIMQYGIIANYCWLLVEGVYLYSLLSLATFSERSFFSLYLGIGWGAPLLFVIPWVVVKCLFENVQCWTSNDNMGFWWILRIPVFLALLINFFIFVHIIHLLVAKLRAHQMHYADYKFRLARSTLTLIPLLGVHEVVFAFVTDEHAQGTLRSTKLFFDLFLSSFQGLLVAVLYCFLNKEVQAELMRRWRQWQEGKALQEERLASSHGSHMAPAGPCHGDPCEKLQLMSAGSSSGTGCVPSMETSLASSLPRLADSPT

Substance: insulin
glucagon stimulated Kiss1 and Pck1 expression (Kiss1 [1]; mouse hepatocytes, insulin plus glucagon): dampened | Kiss1 expression (Kiss1 [1]): reduced basal Kiss1 expression | Pck1 expression (Kiss1 [1]): also reduced Pck1 expression | hepatic Kiss1 mRNA and protein levels (Kiss1 [2]): decreased

Substance: Tyr-Asn-Trp-Asn-Ser-Phe-Gly-Leu-Arg-Phe-NH2 (YNWNSFGLRF-NH2; listed as Homo sapiens) [K10, 10 amino acid C-terminal kisspeptin fragment, GPR54 agonist]
GSIS [3]: stimulate GSIS

impaired GSIS of WT islets exposed to diabetic serum (GPR54 [4]; 10% serum from L-Δprkar1a, db/db and ob/ob mice, co-incubation with K234): recovered | effects of K10 on islets (FIG. 27) (GPR54 [4]; WT islets, K10 10 nM): counteracts effects of k10
Substance: K234: GPR54 receptor antagonist, Kisspeptin derivative (SEQ ID NOS:36-37; Roseweir et al. 2009)
glucose tolerance (GPR54 [5]): dramatic improvement in glucose tolerance

liver Kiss1 transcript and kisspeptin protein in L-ΔInsr mice (Gcgr [6]; compared to Insrfl/fl mice): dramatically increased | hepatic kisspeptin1 production (Gcgr [6]; mice, 16 mg/kg ip, 30 min after injection, versus PBS): increased hepatic kisspeptin1 production
Substance: glucagon
Kiss1 expression (Kiss1 [1]): stimulated | Pck1 expression (Kiss1 [1]): also stimulated | Kiss1 promoter luciferase reporter activity (mouse Kiss1 promoter): transcriptional activation | kisspeptin production in L-ΔGcgr mice (Gcgr [7]): did not change
